This is an account of results in PMC13224100, “Esterase-Responsive Mitochondria-Targeted Hydropersulfide Donors Mitigate Doxorubicin Cardiotoxicity While Preserving Anticancer Activity” (Angewandte Chemie (International ed. in English), 2025).

SMILES strings stand for the structures.

Data set [1] in a line: Aqueous stability of RSSH precursors in PBS. The class given is physicochemical. Conditions: PBS pH 7.4, 37 °C, over 9 h. How it is done: We synthesized AST-2 as an esterase-sensitive RSSH donor via reaction of N-acetylpenicillamine methyl ester with methoxycarbonyl sulfenyl chloride in dichloromethane at 0 °C, affording the product in 72% yield (see Scheme S1). We first evaluated the aqueous stability of AST-2 in phosphate-buffered saline (PBS, pH 7.4) at 37 °C.
APT-1 was synthesized in 93% overall yield via a one-pot two-step sequence: N-acetylpenicillamine methyl ester was reacted with chlorocarbonylsulfenyl chloride to afford an S-perthiocarbonyl chloride intermediate, which was subsequently treated with 2-acetoxy-N-methylethan-1-aminium chloride in the presence of triethylamine (see Supporting Information).
We first evaluated the aqueous stability of the mitochondria-targeted analogs AST-2-TPP and APT-1-TPP. […] APT-1-TPP similarly retained excellent stability, with < 5% degradation over 41 h (Figure S1D).

The nature of data set [2]: Cytoprotection against DOX-induced toxicity, CCK-8 assay. In kind it is cell-based. Conditions: rat, H9c2 cells; DOX 5 μM, 24 h, CCK-8; read-out: cell viability, DOX alone. As for the experimental part: (§1) We evaluated the cytoprotective effects of RSSH precursors against DOX-induced cardiotoxicity in H9c2 cardiomyoblasts. First, we assessed the cytotoxicity of the RSSH donors (AST-2, APT-1, AST-2-TPP, and APT-1-TPP) using the CCK-8 assay.[24] […] To evaluate cytoprotection, H9c2 cells were pretreated with RSSH donors for 4 h, followed by 24 h co-treatment with DOX (5 μM). As expected, DOX alone reduced cell viability to ca. 50% (Figure 4a). […] Although both compounds were protective, no enhancement of potency was observed upon TPP conjugation. […] A distinctive feature of our study is the direct comparison between mitochondria-targeted and non-targeted RSSH donors. […] TPP conjugation only modestly enhances the cytoprotective effects of RSSH donors under our experimental conditions. This outcome may reflect the intrinsic high efficacy of non-targeted RSSH donors, thereby limiting the additional benefit of mitochondrial targeting.
(§2) Figure 4. Protective effects of RSSH donors against DOX-induced cytotoxicity in H9c2 cells. Cells were pretreated with RSSH donors for 4 h, followed by exposure to DOX (5 μM) for an additional 24 h. Cell viability was assessed using the cell counting Kit-8 (CCK-8) assay. Results are expressed as mean ± SEM, n = 3; *P < 0.05, **P < 0.01, ***P < 0.001, ****P < 0.0001. Ctl = vehicle-treated group (0.01% DMSO in medium). […]
(§3) Cytoprotective Effects of RSSH Donors against Doxorubicin Toxicity
(§4) Cytoprotective studies were performed as previously described.[8] Briefly, H9c2 cells, HepG2 cells, MDA-MB-468 cells, and MCF-7 cells were seeded at a density of 7 x 10^3 cells/well. […] Additionally, in the vehicle control group, cells were treated with medium (DMEM with 10% FBS) containing 0.01% DMSO only. The cells were then further incubated for an additional 4 h before being treated with DOX (10 μL/well, with final concentration of 5 μM). After a 24 h co-incubation with DOX, each well was carefully washed three times with PBS (pH 7.4) and 100 μL o f F B S-free medium containing 10% v/v CCK-8 (Dojindo) was added. The plates were then incubated for 1-2 h before measuring absorbance at […]
(§5) The relative % cell viability was calculated as 100 times the ratio of Abs450 (RSSH donor + DOX-exposed) to Abs450 (vehicle, non-DOX-exposed). Each treatment condition was performed in 6 technical replicates per biological replicate, and the experiment was independently repeated three times (n = 3 biological replicates). Data are presented as mean ± SEM. […]
A general note: Tetrazolium assays rely on reduction of a dye to a coloured formazan, in cell work by metabolically active cells.

In data set [3] the test system is H9c2 cells. Briefly: Mitochondrial membrane potential (TMRM) under DOX. In kind it is cell-based. The settings on record: DOX 5 μM, 24 h, TMRM. As for the experimental part:
(§6) Figure 6. a) Basal sulfane sulfur (SS) levels in H9c2 cardiomyocyte, MDA-MB-468, MCF-7, and HepG2 cell lines as detected by SSP4 fluorescence. b) Representative images and c) basal levels of mitochondrial membrane potential (MMP) in H9c2 and cancer cells (MDA-MB-468, MCF-7, and HepG2). d) Impact of APT-1 (25 μM) or APT-1-TPP (25 μM) on MMP in DOX (5 μM)-treated (d) H9c2 and e) HepG2 cells. Impact of APT-1 (25 μM) and APT-1-TPP (25 μM) on ATP levels in DOX (5 μM)-treated f) H9c2 and g) HepG2 cells. Results are expressed as mean ± SEM, n = 3–6; *P < 0.05, **P < 0.01, ***P < 0.001, ****P < 0.0001. Significances in (a) and (c) are presented with respect to H9c2 cells.
(§7) We then examined how RSSH donors influence MMP during DOX exposure. As expected, DOX alone induced mitochondrial depolarization in H9c2 cells, reducing MMP to ca. 50% of control (Figure 6d). […] To complement these observations, we quantified intracellular ATP levels as a functional readout of mitochondrial activity. […]
Mitochondrial Membrane Potential Measurements
Mitochondrial membrane potential was measured using Image-iT™ TMRM Reagent (Cat#I34361, Invitrogen, USA) according to the manufacturer's protocols. […]
The cells were incubated for an additional 24 h. After completion of treatment, cells were washed with a warm clear DMEM medium (with 10% FBS) and incubated in culture media containing TMRM (working solution 100 nM) for 30 min at 37 °C. Cells were then washed with a warm clear FBS-free DMEM medium (3 times) before imaging. Images were obtained with Zeiss LSM 800 with AiryScan Confocal (λex = 548 nm, λem = 573 nm). During each experiment, 6 field images were obtained for each experimental group. Images were analyzed using Image J software, and all cells in each image were selected for fluorescence intensity measurement (cell-free space was also measured as blank). H9c2 signal intensity was set to 100% and signal intensity for all the other cell lines was shown as a percentage of that of H9c2.
The experiments were independently repeated three times (n = 3 biological replicates). Data are […]
Figure S24. Representative TMRM images for mitochondrial membrane potential (MMP) in H9c2 and HepG2 cells with APT-1 and APT-1-TPP treatment under DOX stress. Ctl = vehicle (medium with 0.01% […]
(1 picture or pasted object on this page, not shown here)

In data set [4] the test system is H9c2 cells. Briefly: Intracellular ATP levels (CellTiter-Glo) under DOX. Conditions: DOX 5 μM, 24 h. In kind it is cell-based. As for the experimental part: as §6, §7
Briefly, H9c2 cells and HepG2 cells were seeded in 96-well white-bottom plate (Alkali Scientific, SKU:TPW9096, TC-treated) at 5000 cells/well. After treatment (Ctrl, 5 μM DOX alone, 4 h pretreatment of 25 μM APT-1 + 24 h cotreatment with 5 μM DOX, and 4 h pretreatment of 25 μM APT-1-TPP + 24 h cotreatment with 5 μM DOX, in clear DMEM medium with 10% FBS), cells were equilibrated at rt for 30 min before CellTiter-Glo® reagent was added to each well. Plates were then placed on an orbital shaker for 2 min and incubated at rt for another 20 min.
Chemiluminescence was measured using Tecan plate reader (SPARK Part No. 30124664 Version 1.7, serial No. 1909010319). Cellular AT P concentration was calculated based on the AT P calibration curve and normalized to cell count. […] Each treatment condition was performed in 6 technical replicates per biological replicate, and the experiment was independently repeated three times (n = 3 biological replicates).
Data are presented as mean ± SEM. […]

Data set [5] concerns H9c2 cells. Briefly: Cytoprotection against DOX-induced toxicity, CCK-8 assay. Conditions: 4 h pretreatment, then 24 h co-treatment with DOX 5 μM. The class given is cell-based. As for the experimental part:
as §1, §2, §3, §4, §5

With `COC(=O)C(NC(C)=O)C(C)(C)SSC(=O)Oc1ccccc1` (centres unmarked) [AST-1, reference compound], the “decomposition (aqueous stability)” value in data set [1] is reported as “complete degradation”. A word on the viability: it is the share of living cells, or the viability signal relative to a control. For `COc1cccc2c1C(=O)c1c(O)c3c(c(O)c1C2=O)C[C@@](O)(C(=O)CO)C[C@@H]3O[C@H]1C[C@H](N)[C@H](O)[C@H](C)O1` [DOX, Doxorubicin], the viability at 24 h, 5 µM in data set [2] is around 50%. Also, the “MMP, DOX alone” value in the data set with H9c2 cells [3] is “ca. 50 % of control”. Moreover, the “ATP level, DOX alone” value in the data set on H9c2 cells [4] was “significantly depleted ATP”. In the case of `COC(=O)[C@@H](NC(C)=O)C(C)(C)S` [Pen-SH, N-acetyl penicillamine methyl ester, reference compound], the “protection against DOX-induced cytotoxicity” value in the data set with H9c2 cells [5] is “failed to mitigate DOX-induced cytotoxicity”.
